# According to patent publication US9498412B2, “Method for producing microcapsules with a sun protection effect” (Greenjoy Biotech Co., Ltd., priority 2014, dated 2016):
# Like-named read-outs stand apart in the source and are kept apart here.
# Assay type: in vitro ADME
# Conditions: Landrace, pig, 3 % in mineral oil
# Procedure: 5. In Vitro Transdermal Delivery Analysis:
# (1) Preparing penetration membranes from a swine skin: An ear skin of a 6-month-old Landrace pig was prepared and cleaned with deionized water. The upper skin of the pig ear was cut by a scalpel to remove the fat layer. Then, the pig ear was cut into a plurality of penetration membranes each having an area of 1.5×1.5 cm^2 and each having a thickness of 605 μm. The penetration membranes were soaked in phosphate buffer saline (PBS), were sealed in a bag, and were frozen for future use.
# (2) Before experiment, the penetration membranes were unfrozen in PBS to room temperature such that the gaps between the keratinocyte cells returned to their natural state. The penetration membranes were fixed in a Franz-type diffusion cell (see FIG. 2). The diffusion area was 0.636 cm^2. To test the skin integrity, the upper and lower sections of the diffusion cell were filled with 50% ethanol+50% PBS. After removing bubbles from the lower chamber, a sample of 0.5 g was placed into the upper, donor cell, and 50% ethanol+50% PBS was placed into the lower, receptor cell having a volume of 5.3 mL. A thermostat water tank heater was used to control the water temperature to be 35° C.±1. Stirring was carried out by using a magnet to balance the drug concentration distribution in the receptor cell.
# (3) Each experiment used 5 diffusion cells to obtain the average value. 50 μL was sampled from the receptor cell and analyzed by HPLC. The same amount of a physiological solution was filled back into the receptor cell to maintain the total volume in the receptor cell.
# (4) The injected volume was 50 μL. The detection wavelength was 260 nm. A mixture of 88% methanol, 11% water, and 1% acetic acid was used as the mobile phase in isocratic elution. The flow rate of the mobile phase was 1.0 mL/min. OMC of 1 ppm, 10 ppm, 50 ppm, and 100 ppm and avobenzone standard solution were used to create a calibration curve. Each concentration was detected three times to obtain the average value. Peak-ABC Chromatography Data Handling System (manufactured by Great Tide Instruments, Taiwan) was used to capture and handle the signals. A sample of 50 μL was sampled from the receptor cell and analyzed by HPLC. Peak-ABC Chromatography Data Handling System was used to analyze the concentration for calculating the lag time and the flux.
# The Franz-type diffusion cell system was used to assess the penetration characteristics of carrier-entrapped filters. […] The stratum corneum is an important barrier of the skin for resisting alien objects and is also a hindrance to transdermal delivery of an active constituent. During an initial stage of passage from the donor site to the receptor site through the skin, there is a lag time for the active constituent to penetrate the membrane of the saturated skin. After that, the active constituent remains in steady-state diffusion for a period of time during which the diffusion flux is not changed.
# Assume the concentrations of the active constituent at the donor site and the receptor site of the penetration membrane are respectively Cv and Cr, the mechanism of initial transdermal absorption can be explained by Fick's first law of diffusion: J=dQ/Dt=DAK(Cv−Cr)/h
# wherein J is the transdermal flux, Q is the cumulative penetration amount, D is the diffusion coefficient, A is the diffusional surface area, K is the partition coefficient, and h is the diffusional pathlength.
# Since Cr is very small at the initial stage of penetration, DC=(Cv−Cr) arrpoximates Cv. The transdermal flux is in proportion to the concentration difference ([…]). Thus, the slope of an optimal line in a diagram obtained from the cumulative penetration quantity Q and the penetration time t is the transdermal flux J. The lag time parameter can be obtained by linear extrapolation to the intersection on X axis. […]
Structure (SMILES),Amount in receptor site (0 h),Transdermal flux (%) (0 h),lag time,Amount in receptor site (0.5 h),Transdermal flux (%) (0.5 h),Amount in receptor site (1 h),Transdermal flux (%) (1 h),Amount in receptor site (2 h),Transdermal flux (%) (2 h),Amount in receptor site (3 h),Transdermal flux (%) (3 h),transdermal flux (4 h),Amount in receptor site (6 h),Transdermal flux (%) (6 h),transdermal flux (6 h)
"CCCCC(CC)COC(=O)C=Cc1ccc(OC)cc1 (stereo not shown) [OMC, octyl methoxycinnamate]",0 μg/cm^2,0%,0.15 h,0 μg/cm^2,0%,31.84 ± 1.81 μg/cm^2,0.13 ± 0.01%,65.15 ± 7.96 μg/cm^2,0.28 ± 0.03%,121.97 ± 4.95 μg/cm^2,0.52 ± 0.02%,40.069 μg/cm^2·hr,227.55 ± 12.94 μg/cm^2,0.96 ± 0.05%,
COc1ccc(C(=O)CC(=O)c2ccc(C(C)(C)C)cc2)cc1 [avobenzone],0 μg/cm^2,0%,0.23 h,0 μg/cm^2,0%,20.12 ± 2.19 μg/cm^2,0.09 ± 0.01%,48.21 ± 2.73 μg/cm^2,0.20 ± 0.01%,84.85 ± 4.27 μg/cm^2,0.36 ± 0.02%,,161.26 ± 3.74 μg/cm^2,0.68 ± 0.02%,28.237 μg/cm^2·hr
